Reference: publication PMC9574867, “Discovery and Characterization of Synthesized and FDA-Approved Inhibitors of Clostridial and Bacillary Collagenases” (Journal of Medicinal Chemistry, 2022)
Converted amounts (≈) assume the structure as drawn. “Also recorded” adds a separate entry of the source. Where two headings read alike, the source gives them in different places.

Tests used:
HDAC-8 = target: T1, HDAC-8 (Homo sapiens, UniProt Q9BY41); experiment: Human off-target inhibition, HDAC-8; format: biochemical
T1 sequence (Q9BY41 1-377): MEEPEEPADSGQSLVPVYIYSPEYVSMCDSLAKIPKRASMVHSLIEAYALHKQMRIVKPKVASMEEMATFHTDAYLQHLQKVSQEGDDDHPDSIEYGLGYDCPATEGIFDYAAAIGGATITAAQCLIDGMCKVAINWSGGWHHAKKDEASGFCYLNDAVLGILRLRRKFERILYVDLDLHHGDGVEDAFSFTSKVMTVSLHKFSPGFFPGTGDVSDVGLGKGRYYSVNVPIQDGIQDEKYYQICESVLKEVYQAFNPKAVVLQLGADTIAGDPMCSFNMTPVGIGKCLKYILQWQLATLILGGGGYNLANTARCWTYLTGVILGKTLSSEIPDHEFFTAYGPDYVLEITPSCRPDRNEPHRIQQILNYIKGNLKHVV
Description: (§1) To assess the selectivity of the compounds over human MMPs and on other bacterial collagenases, selected compounds were tested against ColG-CU and ColH-PD from C. histolyticum and ColA-CU from B. cereus strain ATCC14579. In addition, the compounds were tested on catalytic domains of three human MMPs, which are characterized by different depths of the S1′ binding pocket (MMP-1 (shallow), −2 (intermediate), and −3 (deep)). They were also tested against other important human off-targets, which are involved in gene expression and the processing of TNF-α; these include HDAC-3, -8, TACE (ADAM-17),[33],[34] and COX-1.

ColG-CU = ColG-CU (Hathewaya histolytica, UniProt Q9X721); experiment: biochemical; format: biochemical, C. histolyticum; conditions: read-out: Percent inhibition of ColG-CU
Sequence of ColG-CU (Q9X721 111-786): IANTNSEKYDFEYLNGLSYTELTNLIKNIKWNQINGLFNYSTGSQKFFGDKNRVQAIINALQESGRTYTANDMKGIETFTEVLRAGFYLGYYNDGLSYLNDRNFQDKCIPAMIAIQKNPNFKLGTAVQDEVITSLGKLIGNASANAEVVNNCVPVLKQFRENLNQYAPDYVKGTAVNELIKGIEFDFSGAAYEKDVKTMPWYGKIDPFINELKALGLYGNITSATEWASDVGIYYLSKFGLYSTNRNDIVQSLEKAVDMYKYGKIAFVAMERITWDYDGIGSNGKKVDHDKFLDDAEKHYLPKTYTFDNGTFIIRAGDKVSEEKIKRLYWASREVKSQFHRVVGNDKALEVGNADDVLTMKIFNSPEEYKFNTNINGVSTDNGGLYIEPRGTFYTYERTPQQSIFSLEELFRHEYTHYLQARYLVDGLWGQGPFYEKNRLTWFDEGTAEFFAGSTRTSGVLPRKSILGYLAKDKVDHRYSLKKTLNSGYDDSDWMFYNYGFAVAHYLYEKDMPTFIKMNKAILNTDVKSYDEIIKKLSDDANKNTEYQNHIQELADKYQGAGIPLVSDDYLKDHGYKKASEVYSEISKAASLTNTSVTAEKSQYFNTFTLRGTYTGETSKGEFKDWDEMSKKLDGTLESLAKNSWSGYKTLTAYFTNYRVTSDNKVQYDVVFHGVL

MMP-1 = target: T2, MMP-1 (Homo sapiens, UniProt P03956); experiment: MMP inhibition assay, MMP-1; format: biochemical
T2 construct: catalytic domains of three human MMPs; purchased Sigma-Aldrich
T2 sequence (P03956 98-276 limits assumed): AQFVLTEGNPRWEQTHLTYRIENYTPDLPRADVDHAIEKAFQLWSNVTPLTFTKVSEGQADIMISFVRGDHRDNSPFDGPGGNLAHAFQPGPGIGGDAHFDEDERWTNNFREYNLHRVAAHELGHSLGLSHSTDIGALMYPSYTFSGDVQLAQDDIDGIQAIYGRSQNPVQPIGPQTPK
Description: as §1
(§2) The MMP inhibition assay (Sigma-Aldrich, Saint Louise, MO) was performed as previously reported and in accordance with the manufacturer’s instructions. The fluorescence signals were measured in a CLARIOstar plate reader (BMG LABTECH, Ortenberg, Germany) at a concentration of 100 μM.

TACE (ADAM-17) = TACE (ADAM-17) (Homo sapiens, UniProt P78536); experiment: Human off-target inhibition, TACE; format: biochemical
Sequence of TACE (ADAM-17) (P78536 215-824): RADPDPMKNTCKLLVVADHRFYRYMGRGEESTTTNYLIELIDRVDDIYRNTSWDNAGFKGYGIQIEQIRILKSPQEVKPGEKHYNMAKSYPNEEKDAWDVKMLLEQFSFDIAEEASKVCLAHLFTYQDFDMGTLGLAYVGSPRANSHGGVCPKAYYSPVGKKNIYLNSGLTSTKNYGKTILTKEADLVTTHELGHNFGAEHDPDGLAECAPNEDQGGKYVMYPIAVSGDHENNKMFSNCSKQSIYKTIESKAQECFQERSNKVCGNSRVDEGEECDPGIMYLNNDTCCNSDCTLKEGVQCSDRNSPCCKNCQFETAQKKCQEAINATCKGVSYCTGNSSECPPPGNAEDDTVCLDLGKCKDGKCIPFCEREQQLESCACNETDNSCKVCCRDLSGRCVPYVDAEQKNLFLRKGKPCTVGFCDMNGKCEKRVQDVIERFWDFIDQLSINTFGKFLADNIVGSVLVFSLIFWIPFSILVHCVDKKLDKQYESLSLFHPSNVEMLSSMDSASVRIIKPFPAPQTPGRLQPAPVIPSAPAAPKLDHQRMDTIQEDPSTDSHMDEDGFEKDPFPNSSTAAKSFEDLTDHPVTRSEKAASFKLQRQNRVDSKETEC
Description: as §1

MMP-3 = target: T3, MMP-3 (Homo sapiens, UniProt P08254); experiment: MMP inhibition assay, MMP-3; format: biochemical
T3 construct: catalytic domains of three human MMPs; purchased Sigma-Aldrich
T3 sequence (P08254 100-272 limits assumed): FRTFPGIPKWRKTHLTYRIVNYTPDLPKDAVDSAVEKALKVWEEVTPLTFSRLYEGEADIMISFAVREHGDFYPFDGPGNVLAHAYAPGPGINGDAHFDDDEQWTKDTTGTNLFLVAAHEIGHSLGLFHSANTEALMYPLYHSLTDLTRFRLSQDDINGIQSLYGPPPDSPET
Description: as §1, §2

MMP-2 = target: T4, MMP-2 (Homo sapiens, UniProt P08253); experiment: MMP inhibition assay, MMP-2; format: biochemical
T4 construct: catalytic domains of three human MMPs; purchased Sigma-Aldrich
T4 sequence (P08253 110-444 limits assumed): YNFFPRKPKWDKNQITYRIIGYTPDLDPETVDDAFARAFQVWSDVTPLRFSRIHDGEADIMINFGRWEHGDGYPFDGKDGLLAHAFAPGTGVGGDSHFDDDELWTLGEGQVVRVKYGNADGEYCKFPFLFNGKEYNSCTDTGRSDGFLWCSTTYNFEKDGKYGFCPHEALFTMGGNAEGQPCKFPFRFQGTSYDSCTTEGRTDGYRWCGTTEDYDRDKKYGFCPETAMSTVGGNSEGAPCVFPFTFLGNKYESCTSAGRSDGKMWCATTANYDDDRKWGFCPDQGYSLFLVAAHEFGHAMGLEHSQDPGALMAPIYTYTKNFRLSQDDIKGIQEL
Description: as §1, §2

B. cereus AH187 = experiment: B. cereus growth inhibition assay; format: cell-based; conditions: Bacillus cereus, read-out: MIC50 (µM) AH187
HDAC-3 = HDAC-3 (Homo sapiens, UniProt O15379); experiment: Human off-target inhibition, HDAC-3; format: biochemical
Sequence of HDAC-3 (O15379 whole entry): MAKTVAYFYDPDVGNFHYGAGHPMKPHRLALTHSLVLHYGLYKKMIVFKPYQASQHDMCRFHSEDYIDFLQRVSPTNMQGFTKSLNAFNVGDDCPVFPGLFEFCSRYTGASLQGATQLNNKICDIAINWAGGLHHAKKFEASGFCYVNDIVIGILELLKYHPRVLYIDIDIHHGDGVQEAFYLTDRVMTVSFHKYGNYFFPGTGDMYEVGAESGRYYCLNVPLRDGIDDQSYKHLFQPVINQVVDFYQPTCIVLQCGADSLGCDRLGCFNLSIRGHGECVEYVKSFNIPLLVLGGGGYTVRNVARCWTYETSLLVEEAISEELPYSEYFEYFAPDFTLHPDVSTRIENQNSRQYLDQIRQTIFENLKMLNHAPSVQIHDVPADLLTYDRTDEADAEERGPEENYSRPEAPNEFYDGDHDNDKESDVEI
Sequence of HDAC-3 (Q9Y618 395-489 partner limits assumed): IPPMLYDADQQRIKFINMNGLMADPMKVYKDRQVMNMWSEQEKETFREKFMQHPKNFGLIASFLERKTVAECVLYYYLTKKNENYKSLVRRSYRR
Description: as §1

[1] = test system: B. cereus AH187 infection; format: in vivo, Galleria mellonella; conditions: in vivo
ColH-PD = ColH-PD (Hathewaya histolytica, UniProt Q46085); experiment: biochemical; format: biochemical, C. histolyticum; conditions: read-out: Percent inhibition of ColH-PD
Sequence of ColH-PD (Q46085 331-721 limits assumed): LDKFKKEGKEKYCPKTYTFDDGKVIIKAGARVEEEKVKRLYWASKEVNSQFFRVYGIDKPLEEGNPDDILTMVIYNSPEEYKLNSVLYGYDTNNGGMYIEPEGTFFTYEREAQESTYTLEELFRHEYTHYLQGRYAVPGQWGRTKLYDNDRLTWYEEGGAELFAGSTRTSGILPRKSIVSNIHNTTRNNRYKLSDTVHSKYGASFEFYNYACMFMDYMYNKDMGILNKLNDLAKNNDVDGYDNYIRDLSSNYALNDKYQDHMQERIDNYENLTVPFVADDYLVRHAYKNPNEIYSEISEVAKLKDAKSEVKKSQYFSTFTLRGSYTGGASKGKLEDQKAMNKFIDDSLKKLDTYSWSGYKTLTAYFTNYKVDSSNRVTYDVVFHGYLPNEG

ColQ1-CU = ColQ1-CU (Bacillus cereus, UniProt B9J3S4); experiment: biochemical; parameters: species or system B. cereus strain Q1
Sequence of ColQ1-CU (B9J3S4 94-765 limits assumed): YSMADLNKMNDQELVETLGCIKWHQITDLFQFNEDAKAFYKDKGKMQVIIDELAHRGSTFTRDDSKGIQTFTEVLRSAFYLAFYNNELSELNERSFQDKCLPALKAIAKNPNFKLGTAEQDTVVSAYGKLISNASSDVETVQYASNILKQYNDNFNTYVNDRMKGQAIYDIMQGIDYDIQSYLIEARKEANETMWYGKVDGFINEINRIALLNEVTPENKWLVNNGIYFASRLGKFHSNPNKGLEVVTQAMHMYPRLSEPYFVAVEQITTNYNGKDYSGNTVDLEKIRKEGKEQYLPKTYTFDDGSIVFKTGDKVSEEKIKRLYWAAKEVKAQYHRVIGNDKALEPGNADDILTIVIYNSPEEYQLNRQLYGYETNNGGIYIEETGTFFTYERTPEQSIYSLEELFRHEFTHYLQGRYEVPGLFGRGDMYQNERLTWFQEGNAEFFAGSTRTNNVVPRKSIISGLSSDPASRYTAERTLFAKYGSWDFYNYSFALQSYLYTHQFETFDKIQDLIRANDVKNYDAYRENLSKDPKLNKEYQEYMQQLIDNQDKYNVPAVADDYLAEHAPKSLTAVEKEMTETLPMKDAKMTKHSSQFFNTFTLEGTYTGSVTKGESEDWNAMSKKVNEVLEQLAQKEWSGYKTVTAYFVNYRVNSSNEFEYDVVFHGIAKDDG

ColA-CU = ColA-CU (Bacillus cereus, UniProt Q81BJ6); experiment: biochemical; format: biochemical, B. cereus strain ATCC14579; conditions: read-out: Percent inhibition of ColA-CU
Sequence of ColA-CU (Q81BJ6 93-764): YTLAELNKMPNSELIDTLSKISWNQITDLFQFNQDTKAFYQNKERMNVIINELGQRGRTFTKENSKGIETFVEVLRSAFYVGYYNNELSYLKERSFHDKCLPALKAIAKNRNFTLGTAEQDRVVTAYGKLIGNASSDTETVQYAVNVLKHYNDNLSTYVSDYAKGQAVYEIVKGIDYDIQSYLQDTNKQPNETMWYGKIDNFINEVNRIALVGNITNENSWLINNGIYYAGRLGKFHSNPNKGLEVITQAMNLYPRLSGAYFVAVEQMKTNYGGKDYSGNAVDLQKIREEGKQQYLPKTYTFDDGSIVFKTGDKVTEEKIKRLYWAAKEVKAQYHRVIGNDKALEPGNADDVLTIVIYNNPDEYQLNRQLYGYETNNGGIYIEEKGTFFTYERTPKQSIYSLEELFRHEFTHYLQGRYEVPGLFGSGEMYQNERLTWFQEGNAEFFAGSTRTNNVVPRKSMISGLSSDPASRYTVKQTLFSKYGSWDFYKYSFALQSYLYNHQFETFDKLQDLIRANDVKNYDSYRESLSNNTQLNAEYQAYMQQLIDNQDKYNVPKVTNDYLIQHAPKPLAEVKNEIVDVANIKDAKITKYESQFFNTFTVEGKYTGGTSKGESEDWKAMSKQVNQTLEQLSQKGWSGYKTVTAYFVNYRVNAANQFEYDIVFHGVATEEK

[2] = test system: NHDF cells infected with B. cereus; experiment: NHDF infection model, cell morphology/attachment and fibrillar collagen (picrosirius red); format: cell-based, human; conditions: B. cereus infection, 5 h
ColQ1-FL = ColQ1-FL (Bacillus cereus, UniProt B9J3S4); format: biochemical; conditions: 12.5–1.5 μM tested, SDS-PAGE
Sequence of ColQ1-FL (B9J3S4 94-965 limits assumed): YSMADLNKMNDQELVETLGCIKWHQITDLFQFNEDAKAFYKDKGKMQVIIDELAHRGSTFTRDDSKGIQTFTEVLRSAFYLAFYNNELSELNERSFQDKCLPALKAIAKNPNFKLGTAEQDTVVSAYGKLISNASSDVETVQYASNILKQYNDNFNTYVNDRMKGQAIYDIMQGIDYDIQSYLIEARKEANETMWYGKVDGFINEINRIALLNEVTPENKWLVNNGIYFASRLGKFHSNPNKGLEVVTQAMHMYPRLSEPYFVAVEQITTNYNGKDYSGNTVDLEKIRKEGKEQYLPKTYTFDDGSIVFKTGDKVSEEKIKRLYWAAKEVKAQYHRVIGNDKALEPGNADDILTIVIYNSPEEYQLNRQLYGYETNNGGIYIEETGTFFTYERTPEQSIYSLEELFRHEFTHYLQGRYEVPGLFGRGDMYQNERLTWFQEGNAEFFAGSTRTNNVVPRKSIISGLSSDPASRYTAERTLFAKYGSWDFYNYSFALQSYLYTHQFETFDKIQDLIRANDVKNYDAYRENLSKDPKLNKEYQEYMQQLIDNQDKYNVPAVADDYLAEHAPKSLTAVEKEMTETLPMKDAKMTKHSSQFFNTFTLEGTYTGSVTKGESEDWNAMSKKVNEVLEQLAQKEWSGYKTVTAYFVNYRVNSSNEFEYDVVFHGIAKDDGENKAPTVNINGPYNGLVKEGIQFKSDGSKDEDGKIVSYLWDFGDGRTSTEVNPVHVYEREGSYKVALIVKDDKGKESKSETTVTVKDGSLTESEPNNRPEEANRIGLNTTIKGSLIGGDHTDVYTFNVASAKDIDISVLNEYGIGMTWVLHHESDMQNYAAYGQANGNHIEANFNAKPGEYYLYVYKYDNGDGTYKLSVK

[3] = test system: B. cereus collagenases released in the NHDF infection model; format: cell-based, B. cereus AH187

Compound	inhibition at 100 µM (ColQ1-CU)	IC50 (ColQ1-CU)	Protection of Col I chains from cleavage by ColQ1-FL (ColQ1-FL)	Inhibitory effect on gelatinolytic activity of secreted collagenases [3]	other results
NCCCC(O)(P(=O)([O-])O)P(=O)(O)O.[Na+] [Alendronate sodium, reference compound]	76 ± 1%				IC50 (HDAC-8): > 100 µM; inhibition at 100 µM (ColG-CU): 28 ± 7%; IC50 (MMP-1): > 100 µM; IC50 (TACE (ADAM-17)): > 100 µM; IC50 (MMP-3): > 100 µM; IC50 (MMP-2): > 100 µM; MIC50 (B. cereus AH187; AH187, 48 h): 200 µM; IC50 (HDAC-3): > 100 µM; Increase in survival of infected larvae [1]: 40%; Survival of infected larvae vs control without inhibitor [1]: ameliorated the survival of the larvae in a dose-dependent manner; inhibition at 100 µM (ColH-PD): 25 ± 5%; inhibition at 100 µM (ColA-CU): 18 ± 4%
O=P(O)(O)C(Cl)(Cl)P(=O)(O)O [Clodronate disodium, reference compound]	< 5%				
O=P(O)(O)c1nc2ccccc2nc1P(=O)(O)O [Compound 7, Quinoxaline-2,3-diylbis(phosphonic acid)]	40 ± 7%				
CCOP(=O)(OCC)c1nc2ccccc2nc1P(=O)(OCC)OCC [Compound 7c, Tetraethyl Quinoxaline-2,3-diylbis(phosphonate)]	< 5%				Inhibition (%) (ColQ1-CU; 100 μM): 7c; O=P(OCC)(OCC)C2=NC1=CC=CC=C1N=C2P(OCC)(OCC)=O; 3 ± 2%
O=P(O)(O)c1nc2ccc(F)cc2nc1P(=O)(O)O [Compound 8, (6-Fluoroquinoxaline-2,3-diyl)bis(phosphonic acid)]					Inhibition (%) (ColQ1-CU; 100 μM): 8; O=P(O)(O)C2=NC1=CC(F)=CC=C1N=C2P(O)(O)=O; 38 ± 3%
O=P(O)(O)c1nc2ccc(Cl)cc2nc1P(=O)(O)O [Compound 9, (6-Chloroquinoxaline-2,3-diyl)bis(phosphonic acid)]		4 ± 0.6 µM			
Cc1ccc2nc(P(=O)(O)O)c(P(=O)(O)O)nc2c1 [Compound 11, (6-Methylquinoxaline-2,3-diyl)bis(phosphonic acid)]	58%	3.4 ± 0.1 µM	inhibited the collagenase activity at all concentrations tested	inhibited the collagenase activity toward gelatin only marginally at 100 μM	Effect on cell morphology and ECM collagen content of infected NHDF cells [2]: smaller effect at all concentrations tested; MIC50 (B. cereus AH187; AH187, BHI medium, 37 °C, 48 h, 200–3 μM): 200 µM (≈ 60.8 µg/mL)
CCOP(=O)(OCC)c1nc2ccc(C)cc2nc1P(=O)(OCC)OCC [Compound 11c, tetraethyl (6-methylquinoxaline-2,3-diyl)bis(phosphonate)]	< 5%				Inhibition (%) (ColQ1-CU; 100 μM): 11c; O=P(OCC)(OCC)C2=NC1=CC(C)=CC=C1N=C2P(OCC)(OCC)=O; 8 ± 4%
COc1ccc2nc(P(=O)(O)O)c(P(=O)(O)O)nc2c1 [Compound 12, (6-Methoxyquinoxaline-2,3-diyl)bis(phosphonic acid)]	23 ± 6%				
CCOP(=O)(OCC)c1nc2ccc(OC)cc2nc1P(=O)(OCC)OCC [Compound 12c, tetraethyl (6-methoxyquinoxaline-2,3-diyl)bis(phosphonate)]					% Inhibition (ColQ1-CU; 100 μM): n.i. (key: n.i.: no inhibition (percent inhibition < 5%)); Inhibition (%) (ColQ1-CU; 100 μM): 12c; O=P(OCC)(OCC)C2=NC1=CC(OC)=CC=C1N=C2P(OCC)(OCC)=O; 0 ± 2%
O=c1[nH]c2cc(Cl)c(Cl)cc2nc1P(=O)(O)O [Compound 16, (6,7-Dichloro-3-oxo-3,4-dihydroquinoxalin-2-yl)phosphonic Acid]	< 5%		severe degradation was visible at all tested concentrations		Inhibition (%) (ColQ1-CU; 100 μM): 16; O=P(O)(O)C2=NC1=CC(Cl)=C(Cl)C=C1NC2=O; 5 ± 2%
CC(=O)Nc1cccc(OCc2cn(CCNC(=O)C(CC(C)C)C(=O)NO)nn2)c1 (stereo not shown) [Compound 28, N-[2-[4-[(3-Acetamidophenoxy)methyl]triazol-1-yl]ethyl]-2-(hydroxycarbamoyl)-4-methyl-pentanamide]		35 ± 1 µM	severe degradation was visible at all tested concentrations	no inhibitory effect on the collagenase in the zymography at all tested concentrations; also recorded: no inhibition of the collagenase in the gelatin zymography was detected	Effect on cell morphology and ECM collagen content of infected NHDF cells [2]: neither able to rescue cell morphology nor able to maintain the collagen content of the ECM
CC(=O)Nc1ccc(OCc2cn(CCNC(=O)C(CC(C)C)C(=O)NO)nn2)cc1 (stereo not shown) [Compound 29, N-[2-[4-[(4-Acetamidophenoxy)methyl]triazol-1-yl]ethyl]-2-(hydroxycarbamoyl)-4-methyl-pentanamide]		35 ± 3 µM	severe degradation was visible at all tested concentrations	no inhibitory effect on the collagenase in the zymography at all tested concentrations; also recorded: no inhibition of the collagenase in the gelatin zymography was detected	Effect on cell morphology and ECM collagen content of infected NHDF cells [2]: neither able to rescue cell morphology nor able to maintain the collagen content of the ECM
CC(C)CC(C(=O)NO)C(=O)NCCn1cc(COc2ccccc2F)nn1 (stereo not shown) [Compound 30, N-[2-[4-[(2-Fluorophenoxy)methyl]triazol-1-yl]ethyl]-2-(hydroxycarbamoyl)-4-methyl-pentanamide]	92%	16.2 ± 0.8 µM		no inhibitory effect on the collagenase in the zymography at all tested concentrations	
CC(C)CC(C(=O)NO)C(=O)NCCn1cc(COc2ccccc2)nn1 (stereo not shown) [Compound 31, 2-(Hydroxycarbamoyl)-4-methyl-N-[2-[4-(phenoxymethyl)triazol-1-yl]ethyl]pentanamide]		12 ± 1 µM	severe degradation was visible at all tested concentrations	no inhibitory effect on the collagenase in the zymography at all tested concentrations; also recorded: no inhibition of the collagenase in the gelatin zymography was detected	Effect on cell morphology and ECM collagen content of infected NHDF cells [2]: neither able to rescue cell morphology nor able to maintain the collagen content of the ECM
CC(C)CC(C(=O)NO)C(=O)NCCn1cc(CSc2ccccc2)nn1 (stereo not shown) [Compound 32, 2-(Hydroxycarbamoyl)-4-methyl-N-[2-[4-(phenylsulfanylmethyl)triazol-1 yl]ethyl]pentanamide]		10.1 ± 0.9 µM	severe degradation was visible at all tested concentrations	no inhibitory effect on the collagenase in the zymography at all tested concentrations; also recorded: no inhibition of the collagenase in the gelatin zymography was detected	Effect on cell morphology and ECM collagen content of infected NHDF cells [2]: neither able to rescue cell morphology nor able to maintain the collagen content of the ECM
CCCCCN(C)CCC(O)(P(=O)(O)O)P(=O)(O)O [Ibandronate sodium, reference compound]	< 5%				
NCCCCCC(O)(P(=O)(O)O)P(=O)(O)O [Neridronate, reference compound]	< 5%				
O=P(O)(O)C(O)(Cc1cccnc1)P(=O)(O)O [Risedronate sodium, reference compound]	< 5%				
